Several values for one entry are separate records, joined by “and”; a condition that tells them apart may be missing. Equal entries are not always repeated.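 The compound was tested at five concentrations on cells cultured in 96-well plates, with a 48-hour exposure period. GI50 = concentration required for 50% inhibition of growth. TGI marks complete inhibition of growth.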
Experiments:
Assay in all cases: NCI tumour cell line growth inhibition, 48 h
CCRF-CEM leukemia = system: CCRF-CEM leukemia
HCC-2998 colon = system: HCC-2998 colon
HCT-15 colon = system: HCT-15 colon
HT29 colon = system: HT29 colon
MALME-3M melanoma = system: MALME-3M melanoma
RPMI-8226 leukemia = system: RPMI-8226 leukemia
SF-295 CNS = system: SF-295 CNS
TK-10 renal = system: TK-10 renal
UO-31 renal = system: UO-31 renal
NCI-H226 lung = system: NCI-H226 lung

| Structure (SMILES) | TGI (CCRF-CEM leukemia) | TGI (HCC-2998 colon) | TGI (HCT-15 colon) | TGI (HT29 colon) | TGI (MALME-3M melanoma) | TGI (RPMI-8226 leukemia) | TGI (SF-295 CNS) | TGI (TK-10 renal) | TGI (UO-31 renal) | TGI (NCI-H226 lung) | GI50 (HCT-15 colon) | GI50 (MALME-3M melanoma) | GI50 (NCI-H226 lung) | GI50 (RPMI-8226 leukemia) | GI50 (TK-10 renal) | GI50 (UO-31 renal) | GI50 (CCRF-CEM leukemia) | GI50 (HCC-2998 colon) | GI50 (HT29 colon) | GI50 (SF-295 CNS) |
| --- | --- | --- | --- | --- | --- | --- | --- | --- | --- | --- | --- | --- | --- | --- | --- | --- | --- | --- | --- | --- |
| CCCCCCCCCCNC(=S)OCCCC | 37.6 µM | 57 µM | 39.7 µM | 37.4 µM | 54.8 µM | 34.9 µM | > 100 µM | 45 µM | 60.3 µM | – | – | – | – | – | – | – | – | – | – | – |
| COc1ccc(C(=O)C(CC2C(=O)CC(C)(C)C(C(=O)C(=O)Nc3c(C)cccc3C)C2=O)c2ccc(OC)cc2)cc1 (stereo unspecified) | > 100 µM | > 100 µM | > 100 µM | > 100 µM | – | – | > 100 µM | > 100 µM | > 100 µM | > 100 µM | – | – | – | – | – | – | – | – | – | – |
| CN1CCc2cc(O)c3cc2C1Cc1ccc(cc1)Oc1cc(ccc1O)CC1c2c(cc4c(c2O3)OCO4)CCN1C (stereo unspecified) | > 100 µM | 41.7 µM | 60 µM | 74.4 µM | – | – | 43.6 µM | 92.2 µM | 9.46 µM | 47.7 µM | – | – | – | – | – | – | – | – | – | – |
| CCOC1=C2C(C)(CCC3[C@@]4(C)C=CC(=O)C(C)(C)C4CC(O)[C@@]23C)C(c2ccoc2)C1=O (stereo partly specified) | 38.9 µM | 31.1 µM | 27.5 µM | 29.2 µM | – | 49.8 µM | 46.5 µM | 61.3 µM | 29.1 µM | 55.4 µM | – | – | – | – | – | – | – | – | – | – |
| Cc1ccc(C)c(N2C(=O)C(=O)c3c(C)ccc(C)c32)c1 | – | – | 27.2 µM | 46.4 µM | 96.5 µM | – | 54.8 µM | 85 µM | 55.3 µM | > 100 µM | – | – | – | – | – | – | – | – | – | – |
| N=C(N)c1ccc(-c2ccc(-c3ccc(Cl)c(Cl)c3)o2)nc1 | – | – | 3.53 µM | – | 3.42 µM | 5.19 µM | – | 3.77 µM | 2.97 µM | 49.9 µM | 1.77 µM | 1.78 µM | 15.4 µM | 2.33 µM | 2.03 µM | 1.5 µM | – | – | – | – |
| COc1ccc2c([nH]c3cc(O)c(C)cc32)c1CC=C(C)C | 17.5 µM | 14.5 µM | > 25 µM | > 25 µM | > 25 µM | > 25 µM | – | – | > 25 µM | > 25 µM | 5.14 µM | 17.3 µM | – | – | – | 14.3 µM | 5.4 µM | 5.49 µM | – | – |
| COc1ccc2cc(C(=O)/C=C/c3ccco3)ccc2c1 | – | – | > 100 µM | > 100 µM | > 100 µM | 99.3 µM | > 100 µM | 70 µM | > 100 µM | – | 25.6 µM | 31 µM | – | 32 µM | 25.6 µM | 37.5 µM | – | – | 42.5 µM | 38.8 µM |
| Cc1cc2c(=O)c3ccccc3oc2c(C#N)c1C | > 100 µM | > 100 µM | – | > 100 µM | > 100 µM | > 100 µM | > 100 µM | > 100 µM | > 100 µM | – | – | – | – | – | – | – | – | – | – | – |
| O=C(O)C1CCCCC1C(=O)Nc1nc2ccccc2[nH]1 (stereo unspecified) | > 100 µM | – | > 100 µM | > 100 µM | > 100 µM | > 100 µM | > 100 µM | > 100 µM | > 100 µM | > 100 µM | – | – | – | – | – | – | – | – | – | – |
| COc1ccc(C(=O)c2cc(OC)c(OC)c(OC)c2)cc1/C=C/C(=O)c1ccc2c(c1)OCO2 | > 100 µM | – | – | – | 6.61 µM | – | 17.2 µM | 14.7 µM | – | 6.32 µM | – | 2.38 µM | 2.23 µM | – | 3.92 µM | – | 0.583 µM | – | – | 3.43 µM |
| C/C=C1\C[C@@H]2C(OC)Nc3cc(O)c(OC)cc3C(=O)N2C1 (stereo partly specified) | 0.103 µM and 0.349 µM | 0.0358 µM and 0.023 µM | – | 0.16 µM and < 0.215 µM | 0.0148 µM | – | 0.467 µM and 1.43 µM | – | – | 0.728 µM and 0.163 µM | 0.00733 µM | 0.00501 µM | 0.116 µM | 0.00269 µM | – | 0.00222 µM | 0.00229 µM | < 0.0178 µM | 0.0075 µM | 0.00328 µM |
| Nc1nc(Cl)nc2c1ncn2C1CCC(COP(=O)(O)OP(=O)(O)OP(=O)(O)O)O1 (stereo unspecified) | > 100 µM | 86.1 µM | 79.3 µM | 90.9 µM | > 100 µM | – | 58.4 µM | > 100 µM | 48.2 µM | > 100 µM | – | – | – | – | – | – | – | – | – | – |
| C[C@]12CC/C(=N\OC(=O)Nc3ccccc3)C=C1CC[C@@H]1C2CC[C@@]2(C)C1CC[C@@H]2OC(=O)Nc1ccccc1 (stereo partly specified) | > 100 µM | > 100 µM | 14.2 µM | > 100 µM | – | > 100 µM | > 100 µM | > 100 µM | > 100 µM | – | – | – | – | – | – | – | – | – | – | – |
| COc1cc(CCNc2nc3cc(N)cc(N)c3nc2-c2ccccc2)cc(OC)c1 | 6.48 µM | – | 7.42 µM | 4.87 µM | 2.53 µM | – | 3.47 µM | 12.1 µM | 3.78 µM | 4.87 µM | 2.43 µM | 1.18 µM | 2.16 µM | – | 3.49 µM | 1.94 µM | 1.36 µM | – | 1.93 µM | 1.77 µM |
| COC(=O)C1=C(C)N(NC(=O)c2cccc(Cl)c2)C(C)(O)C12CCOC2=O (stereo unspecified) | – | > 100 µM | > 100 µM | > 100 µM | > 100 µM | > 100 µM | > 100 µM | – | > 100 µM | > 100 µM | – | – | – | – | – | – | – | – | – | – |
| COc1ccc(OC)c(-c2cc(C(=O)O)c3cc4ccccc4cc3n2)c1 | – | – | > 100 µM | > 100 µM | > 100 µM | > 100 µM | > 100 µM | > 100 µM | – | > 100 µM | – | – | – | – | – | – | – | – | – | – |
| O=C(NCCCCCCNC(=O)NC1OCC(O)C(O)C1O)NC1OCC(O)C(O)C1O (stereo unspecified) | > 100 µM | – | > 100 µM | > 100 µM | > 100 µM | > 100 µM | > 100 µM | > 100 µM | – | > 100 µM | – | – | – | – | – | – | – | – | – | – |
| CCCCCCCCCCCCCC(=O)OC1C(CO)OC(=O)C1O (stereo unspecified) | > 100 µM | > 100 µM | > 100 µM | > 100 µM | > 100 µM | > 100 µM | > 100 µM | > 100 µM | > 100 µM | – | – | – | – | – | – | – | – | – | – | – |
| N#C/C(=C\c1ccc([N+](=O)[O-])s1)c1nc2cc(Br)ccc2s1 | > 100 µM | – | 0.264 µM | > 100 µM | 0.291 µM | 0.856 µM | > 100 µM | > 100 µM | 0.461 µM | 0.335 µM | 0.0707 µM | 0.134 µM | 0.152 µM | 0.246 µM | 0.918 µM | 0.142 µM | 0.161 µM | – | 1.92 µM | – |
| Cc1cc(O)c(O)c(Oc2cc(C)cc(O)c2O)c1 | 7.46 µM | > 100 µM | 29.9 µM | 41.1 µM | – | > 100 µM | 55.7 µM | 36.3 µM | > 100 µM | 75.1 µM | – | – | – | – | – | – | – | – | – | – |
| CS(=O)(=O)N(CC(=O)O)Cc1ccccc1 | > 100 µM | – | > 100 µM | > 100 µM | > 100 µM | > 100 µM | > 100 µM | > 100 µM | – | > 100 µM | – | – | – | – | – | – | – | – | – | – |

Source: PubChem BioAssay (NCI)
